In ChEMBL document CHEMBL3507680, “University of Dundee, Gates Library screen for HepG2 cell viability”:

Assay: Human HepG2 cell viability assay in 384 well format
Assay type: toxicity, cell-based
Set-up: dose 125 nL, time 70.5 hour; concentration not given beside the values
Conditions: HepG2 cells, read-out: Inhibition

| Compound | cytotoxicity at 70.5 h |
| --- | --- |
| O=C(CCc1ccc(F)cc1)NCc1ccnc(NC2CC2)c1 | -2.2% |
| Cc1ncc2c(n1)CCCC2NC(=O)c1ccccc1Cn1cncn1 (centres undefined) | 18.1% |
| CC(C)C(=O)NCCNC(=O)C12CCC(=O)N1c1cc(Cl)ccc1S2 (centres undefined) | -1.8% |
| Cc1cccc(N(CC(=O)N2CCCCC2)Cc2ccno2)c1 | -5.71% |
| OCCN(Cc1nc(-c2ccc3c(c2)OCO3)no1)CC1CC1 | 4.42% |
| Cc1ncc(CNCC(=O)NCC(F)(F)F)n1-c1ccccc1 | -5.37% |
| CC(C)C(=O)N1CCCN(C(=O)NC2CCc3ccccc3C2)CC1 (centres undefined) | -4.48% |
| COc1cccc(NC(=O)CNc2ccc(C(=O)N(C)C)c(Cl)c2)c1 | -4.79% |
| CCOC(=O)Cn1ccc2cc(NC(=O)N3CCSCC3)ccc21 | 1.82% |
| Cc1csc(N2CCN(Cc3ccn(C)c(=O)c3)CC2)n1 | -5.98% |
| c1cnc(N2CCN(Cn3nccc3-c3cccnc3)CC2)nc1 | 5.37% |
| CC(C)(C)CCN1CCN(Cn2nccc2-c2cccnc2)CC1 | 0.907% |
| Cn1cc(CCCNC(=O)NC2CCN(c3ccccc3)C2=O)cn1 (centres undefined) | -5.19% |
| CCc1ccc(C(=O)Nc2cc(N3CCNC3=O)ccc2Cl)o1 | -5.46% |
| Cn1cc(CCCNC(=O)NC2CCN(CC(F)(F)F)C2=O)cn1 (centres undefined) | -3.21% |
| Cc1ccc(CCNC(=O)NC2CCN(CC(F)(F)F)C2=O)cn1 (centres undefined) | -5.39% |
| N#Cc1c(F)cccc1NCCCOCC1CCOC1 (centres undefined) | -0.771% |
| N#Cc1cc(F)c(NCCCOCC2CCOC2)c(F)c1 (centres undefined) | 7.98% |
| N#Cc1ccc(NCCCOCC2CCCO2)c(F)c1 (centres undefined) | 2% |
| COCC(NC(=O)NCc1cccc(Cl)c1)c1ccco1 (centres undefined) | -5.77% |
| Cc1cc(NS(=O)(=O)c2cnc3onc(C)c3c2)no1 | 0.112% |
| CN(C)CCN(Cc1ccco1)C(=O)Cc1cn2ccsc2n1 | -3.81% |

| Compound | cytotoxicity at 70.5 h |
| --- | --- |
| COCC(NC(=O)NCc1sccc1C)c1ccco1 (centres undefined) | 1.36% |
| COc1ccc(C(C)(C)C(=O)NCc2n[nH]c(=O)[nH]2)cc1 | -1.62% |
| COc1ccc(S(=O)(=O)NC(=O)c2ccccc2F)cc1OC | 1.07% |
| c1cncc(-c2ccnn2CN2CCOCC2)c1 | 0.876% |
| O=C(Cc1cn2ccsc2n1)N(Cc1ccco1)CC1CCCO1 (centres undefined) | 7.91% |
| COC(C)(C)CC(C)NC(=O)NC1CCN(Cc2ccccn2)CC1 (centres undefined) | -0.855% |
| Cc1ccc(NC(=O)N(C)CC(O)COCCOC(C)C)c(Br)c1 (centres undefined) | -4.27% |
| O=C(NCc1cc[nH]n1)N1CCC(Oc2ccccc2Cl)CC1 | 8.97% |
| Cc1csc(C2(NCC(O)COc3ccc(F)cc3)CCC2)n1 (centres undefined) | -0.482% |
| COCC1CN(C(=O)Nc2cc(-n3cccc3)ccc2F)CCO1 (centres undefined) | 7.34% |
| COc1ccccc1CN(C)c1nc2c(cnn2C)c(=O)[nH]1 | -10.3% |
| COc1ccc(CN(C)c2nc3c(cnn3C)c(=O)[nH]2)c(OC)c1 | 18.3% |
| CS(=O)(=O)c1nnc(NC(=O)CCc2ccc(Cl)s2)[nH]1 | -10.2% |
| COc1ccc(OC)c(CN(C)c2nc3c(cnn3C)c(=O)[nH]2)c1 | 42.4% |
| CC(C)N(C)CCNC(=O)NCc1ccccc1-n1cccn1 | -7.41% |
| Cc1ccc(C)c(OCc2nnc(SCC3CCCN(C)C3)o2)c1 (centres undefined) | -5.12% |
| Cc1ccc(OCC(=O)N(C)Cc2cccc(F)c2)cn1 | -3.84% |
| COc1ccc(Br)cc1CN(C)c1nc2c(cnn2C)c(=O)[nH]1 | -10.6% |
| O=C(Cc1ccc(Cl)cc1)N1CCC(O)(C(F)(F)F)C1 (centres undefined) | -2.11% |
| CN(CCn1cccn1)c1cc(C(F)(F)F)nc(-c2cccnc2)n1 | -4.93% |
| Cn1c(SCC2OCCc3ccccc32)n[nH]c1=O (centres undefined) | -8.09% |
| O=C(N1CCC(O)(C(F)(F)F)C1)C1(c2cccc(Cl)c2)CC1 (centres undefined) | -9.29% |

| Compound | cytotoxicity at 70.5 h |
| --- | --- |
| O=C(CCc1ccc(Cl)cc1)N1CCC(O)(C(F)(F)F)C1 (centres undefined) | -6.2% |
| Cn1cccc(NC(=O)N2CCC(Cc3ccccc3)C2)c1=O (centres undefined) | 19.7% |
| CCCn1nc(-c2nc(C3CC3)no2)ccc1=O | 5.03% |
| Cc1csc(C2(NCc3ccc(OCC(F)F)cc3)CCCC2)n1 | -5.7% |
| FC(F)(F)c1cc(NCCn2ncnn2)nc(-c2cccnc2)n1 | -9.6% |
| O=S(=O)(Cc1ccc(F)c(Cl)c1)NC(CO)c1ccco1 (centres undefined) | -11% |
| Cc1ccc(-c2nc(CNc3ccc(C(N)=O)c(C)c3)cs2)o1 | -8.76% |
| CC(C)(CCS(C)(=O)=O)CNc1ccc2ccc(F)cc2n1 | -2.27% |
| CCC(C(=O)N1CCCSCC1)N1CCCC1=O (centres undefined) | 12.1% |
| Cn1cccc(NC(=O)N2CCC(COCc3ccccc3)C2)c1=O (centres undefined) | 7.11% |
| O=S(=O)(NCC1CCN(CCN2CCOCC2)C1)c1ccccc1F (centres undefined) | 13.9% |
| Cc1ccc2c(c1)OC(C)CN2C(=O)CCc1cccnc1 (centres undefined) | 1.51% |
| Cc1ccc2c(c1)OC(C)CN2C(=O)CCc1cscn1 (centres undefined) | 0.46% |
| O=C(NCCCN1CCN(c2ncccn2)CC1)NCC1CCCO1 (centres undefined) | -3.85% |
| CCc1nnsc1C(=O)N(C)Cc1ccc(Br)o1 | -2.39% |
| CCc1nnsc1C(=O)N(C)Cc1ccc(C)o1 | -0.808% |
| O=C(NCCCN1CCN(c2ncccn2)CC1)NCC1CCOC1 (centres undefined) | 3.56% |
| Cc1ccc(NC(=O)CSCc2cccnc2)nc1 | -1.37% |
| CC1COCCN1C(=O)NCCCn1ccnc1 (centres undefined) | -2.86% |
| CC(=O)N1CCCC(C(=O)N2CCN(Cc3cc(C)on3)CC2)C1 (centres undefined) | 2.35% |
| COc1ccc(CNc2c(C)nn(C(C)C)c2C)cc1 | 13.9% |
| O=C(Cc1ccccc1F)NCC1CCN(CCc2ccccc2)C1 (centres undefined) | -1.68% |

| Compound | cytotoxicity at 70.5 h |
| --- | --- |
| CC(C)NC(=O)[C@@H]1C[C@H]2OCC[C@H]2N(Cc2ccc3ccccc3n2)C1 | 12.8% |
| Cc1cc(C(=O)N2CCn3cc(CN4CCN(C)CC4)nc3C2)no1 | -11.8% |
| Cc1cccc(C(=O)N2CCC3(CC2)CC(c2cnn(C)c2)CO3)c1 (centres undefined) | -15% |
| CNC(=O)N1CCc2nc(C(=O)NCc3cccc(OC)c3)sc2CC1 | 18% |
| O=C(NC1CC1)[C@@H]1CCO[C@@H]2CCN(Cc3ccco3)C[C@H]21 | -13.9% |
| CNC(=O)C1Cn2ccnc2C2(CCN(Cc3c(C)noc3C)CC2)O1 (centres undefined) | 21.5% |
| Cn1cc(C2COC3(CCN(C(=O)c4cccn4C)CC3)C2)cn1 (centres undefined) | 14.2% |
| Cn1cc(C2COC3(CCN(C(=O)c4ccn(C)n4)CC3)C2)cn1 (centres undefined) | -14.5% |
| CS(=O)(=O)N[C@@H]1CCO[C@]2(CCN(C(=O)c3cscn3)C2)C1 | -7.64% |
| Cc1ccc(C(=O)N2C[C@@H]3OCCN(CC4CCCC4)[C@@H]3C2)cn1 | -6.94% |
| O=C(Nc1cccnc1)[C@H]1C[C@@H]2CN(Cc3ccc(F)cc3)C[C@H]1O2 | -7.11% |
| Cc1ccc(CN2C[C@H]3C[C@H](C(=O)Nc4cccnc4)[C@@H](C2)O3)cc1 | 2.68% |
| O=C(c1cccnc1)N1C[C@@H]2OCCN(CCN3CCCC3)[C@@H]2C1 | -10% |
| CCN1Cc2c(C(=O)NC(C)C(C)C)ncn2-c2ccccc2S1(=O)=O (centres undefined) | 6.35% |
| CN1CCN(Cc2cnc3n2CCN(C(=O)c2ccncc2)C3)CC1 | -10.3% |
| CCCS(=O)(=O)N1CC[C@H]2O[C@H](c3nnc(C)o3)CC[C@H]21 | 11.3% |
| CCS(=O)(=O)N1CC[C@H]2O[C@H](c3nnc(C)o3)CC[C@H]21 | -13.4% |
| CNC(=O)c1ncn2c1CN(CCC(C)C)S(=O)(=O)c1ccccc1-2 | -9.5% |
| CN1CCN(Cc2cnc3n2CCN(C(=O)c2ccccn2)C3)CC1 | -12.3% |
| COCC(=O)N1CC[C@@H]2O[C@H](COCc3csc(C)n3)CC[C@@H]21 | -4.59% |
| Cc1cccc(C(=O)N2CC[C@]3(C[C@H](OCc4ccccn4)CO3)C2)c1 | 11.1% |
| c1cnc(NC2COC3(CCN(Cc4nccs4)CC3)C2)cn1 (centres undefined) | -8.19% |

| Compound | cytotoxicity at 70.5 h |
| --- | --- |
| O=C(Cc1cccs1)N1CCn2cc(Cn3cccn3)nc2C1 | -13.4% |
| O=C(c1ccncc1F)N1CC[C@@H]2CN(c3ncccn3)CCO[C@@H]2C1 | -11.2% |
| O=C(c1ccccc1)N1CCC[C@]2(C[C@@H](OCc3ccccn3)CO2)C1 | -13.1% |
| Cn1nccc1C(=O)N1CC[C@]2(C[C@H](OCc3ccccn3)CO2)C1 | -11.1% |
| Cc1ccc(C(=O)N2CCC3(CC2)CC(c2cnn(C)c2)CO3)cn1 (centres undefined) | -10.6% |
| O=C([C@H]1C[C@H]2OCC[C@H]2N(Cc2ccc(F)cc2)C1)N1CCCCO1 | 20.6% |
| CNC(=O)N1C[C@H]2C[C@H](C(=O)Nc3cccnc3)[C@@H](C1)O2 | -2.82% |
| O=C([C@H]1C[C@H]2OCC[C@H]2N(CC2CC2)C1)N1CCCCO1 | -4.54% |
| O=C([C@H]1C[C@H]2OCC[C@H]2N(Cc2ccccn2)C1)N1CCCCO1 | -9.44% |
| O=C([C@H]1C[C@H]2OCC[C@H]2N(Cc2ccoc2)C1)N1CCCCO1 | -6.32% |
| COCCN1CC[C@@H]2O[C@H](COCc3csc(C)n3)CC[C@@H]21 | -15.2% |
| CC1=N[C@@]2(CC[C@@H]3CN(CC4CC4)C[C@@H]32)C(=O)N1CC(C)C | -15.3% |
| O=C(NCc1ccco1)[C@H]1COC[C@H]2CN(Cc3ccccn3)C[C@H]21 | -8.72% |
| CN1CCN(C2COC3(CCN(Cc4ccsc4)CC3)C2)CC1 (centres undefined) | -8.09% |
| O=C([C@H]1C[C@H]2OCC[C@H]2N(Cc2cccnc2)C1)N1CCCCO1 | -7.65% |
| Cn1cc(C[C@H]2[C@H](O)CCN2Cc2ccncc2)cn1 | -5.7% |
| Cc1ncsc1CN1Cc2cn(C)nc2C(COCC2CC2)C1 (centres undefined) | 11.6% |
| CO[C@@H]1CCN(Cc2nccn2C)[C@H]1Cc1cccnc1 | 12.4% |
| O=C(Cc1ccccn1)N1CCN2C[C@H](OCCN3CCCC3)C[C@H]2C1 | 19.7% |
| Cc1ccc(CN2CCC3(CC2)CC(N2CCN(C)CC2)CO3)s1 (centres undefined) | -9.14% |
| COCC1CN(Cc2ccccn2)Cc2cn(C)nc21 (centres undefined) | -4.86% |
